Experimental findings from ChEMBL document CHEMBL1201862, “PubChem BioAssay data set” (2004) are described below.

SMILES strings stand for the structures.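 In this assay, cells in 96-well plates receive the compound at five concentrations for 48 hours. Endpoints are linearly interpolated between the surrounding concentrations. GI50 is the concentration that inhibits growth by half.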 The source made the active and inactive calls. No stated cut-off is given here; in the data, active = GI50 up to about 1.1 µM and inactive = higher.

Some test systems named below: CAKI-1; CCRF-CEM; DU-145; EKVX; HCT-15; Hs-578T; KM12; LOX IMVI; MDA-MB-231; MDA-N; MOLT-4; NCI-H226; NCI-H522; OVCAR-3; OVCAR-5; RPMI-8226; SF-539; U-251; UACC-62.
Holding throughout (experiment): growth of human tumour cells (NCI), 48 h

Take `COc1ccc(CCNC(=O)Cc2cc(OC)c(OC)cc2CO)cc1OC`: the GI50 with CAKI-1 is > 100 µM (inactive); with CCRF-CEM it was > 100 µM (inactive); in the experiment with DU-145, > 100 µM (inactive); in the experiment with EKVX it was > 100 µM (inactive); in the experiment on HCT-15 it was greater than 100 µM; with Hs-578T, > 100 µM (inactive). Further, the GI50 in the experiment with KM12, in the experiment with LOX IMVI, with MDA-MB-231, with MDA-N, with MOLT-4 and with NCI-H226 was > 100 µM (inactive) in each case. In addition, the GI50 in the experiment with NCI-H522, in the experiment on OVCAR-3, with OVCAR-5, with RPMI-8226, with SF-539 and in the experiment on U-251 was > 100 µM (inactive) throughout. The GI50 in the experiment with UACC-62 is > 100 µM (inactive).
On to `COc1ccc(-c2coc3c4c(ccc3c2=O)OCO4)cc1OC`, for which the GI50 was 91.6 µM (inactive) in the experiment with CAKI-1; > 100 µM (inactive) in the experiment with CCRF-CEM; > 100 µM (inactive) with DU-145; 38.5 µM (inactive) with EKVX; 18 µM in the experiment with HCT-15; 26.4 µM (inactive) in the experiment with Hs-578T. The GI50 in the experiment on KM12 was 83.6 µM (inactive); with LOX IMVI it was 98.2 µM (inactive); with MDA-MB-231, 45.4 µM (inactive); in the experiment with MDA-N, 5.79 µM (inactive); in the experiment with MOLT-4, > 100 µM (inactive); in the experiment with NCI-H226 it was 76.7 µM (inactive). In addition, the GI50 in the experiment on NCI-H522 was 56.9 µM (inactive); with OVCAR-3 it was 23.8 µM (inactive); in the experiment on OVCAR-5, > 100 µM (inactive); with RPMI-8226 it was > 100 µM (inactive); in the experiment on SF-539, 40.6 µM (inactive); in the experiment with U-251 it was 37.2 µM (inactive). In addition, the GI50 with UACC-62 was 44.9 µM (inactive).
In the case of `O=C1CC(NC2CC(=O)c3c(Br)sc(Br)c32)c2c(Br)sc(Br)c21` (centres undefined), the GI50 in the experiment on CAKI-1 is 3.63 µM (inactive); in the experiment with CCRF-CEM, 0.998 µM (active); in the experiment with DU-145, 4.58 µM (inactive); in the experiment on EKVX it was 3 µM (inactive); in the experiment on HCT-15, 2.94 µM; with Hs-578T, 4.91 µM (inactive). The GI50 was 1.99 µM (inactive) in the experiment with KM12; 1.92 µM (inactive) in the experiment with LOX IMVI; 3.42 µM (inactive) in the experiment on MDA-MB-231; 2.06 µM (inactive) in the experiment with MDA-N; 2.26 µM (inactive) in the experiment with MOLT-4; 17.4 µM (inactive) with NCI-H226. The GI50 with NCI-H522 is 1.81 µM (inactive); in the experiment with OVCAR-3, 4.44 µM (inactive); with OVCAR-5 it was 20.2 µM (inactive); in the experiment with RPMI-8226, 0.597 µM (active); with SF-539, 1.27 µM (inactive); in the experiment with U-251 it was 1.82 µM (inactive). Besides, the GI50 in the experiment with UACC-62 is 11.9 µM (inactive).
Turning to `Cc1ccc(/N=C2N=C(Cl)/C(=C\c3ccco3)N\2)cc1`, the GI50 is > 100 µM (inactive) with CAKI-1; > 100 µM (inactive) in the experiment on CCRF-CEM; > 100 µM (inactive) in the experiment with DU-145; > 100 µM (inactive) in the experiment with EKVX; greater than 100 µM with HCT-15; > 100 µM (inactive) with Hs-578T. In addition, the GI50 with KM12 was > 100 µM (inactive); with LOX IMVI it was > 100 µM (inactive); in the experiment on MDA-MB-231 it was > 100 µM (inactive); with MDA-N, > 100 µM (inactive); with MOLT-4, > 91.8 µM (inactive); in the experiment with NCI-H226, > 100 µM (inactive). Also, the GI50 is > 100 µM (inactive) with NCI-H522; > 100 µM (inactive) in the experiment with OVCAR-3; > 100 µM (inactive) in the experiment with OVCAR-5; > 87.1 µM (inactive) with RPMI-8226; > 100 µM (inactive) in the experiment with SF-539; > 100 µM (inactive) in the experiment with U-251. Moreover, in the experiment on UACC-62, the GI50 is > 100 µM (inactive).
Consider `CCOC(=O)/C(=C\NC(=S)Nc1ccc(OCC)cc1)C(=O)c1ccccc1`, for which the GI50 in the experiment with CAKI-1 was > 100 µM (inactive); with CCRF-CEM, > 100 µM (inactive); with DU-145, > 100 µM (inactive); in the experiment on EKVX it was > 100 µM (inactive); with HCT-15 it was greater than 100 µM; in the experiment on Hs-578T, 57.9 µM (inactive). The GI50 with KM12, in the experiment on LOX IMVI, in the experiment with MDA-MB-231, in the experiment on MDA-N, in the experiment with MOLT-4 and in the experiment with NCI-H226 was > 100 µM (inactive) in each case. The GI50 in the experiment on NCI-H522, in the experiment on OVCAR-3, in the experiment on OVCAR-5, in the experiment with RPMI-8226, in the experiment with SF-539 and in the experiment with U-251 was > 100 µM (inactive) each time. In addition, the GI50 in the experiment with UACC-62 was > 100 µM (inactive).
For the molecule `CC(=O)N1CCN(CCCCN2c3ccccc3Sc3cc(N=[N+]=[N-])ccc32)CC1`, the GI50 was 12.1 µM (inactive) in the experiment on CAKI-1; 14.5 µM (inactive) in the experiment on CCRF-CEM; 18.1 µM (inactive) in the experiment on DU-145; 18.2 µM (inactive) in the experiment on EKVX; 14.9 µM with HCT-15; 15 µM (inactive) with Hs-578T. Also, the GI50 in the experiment on KM12 was 13.5 µM (inactive); with LOX IMVI it was 14.9 µM (inactive); in the experiment on MDA-MB-231 it was 13.8 µM (inactive); with MDA-N it was 16.7 µM (inactive); with MOLT-4 it was 8.47 µM (inactive); with NCI-H226, 17.6 µM (inactive). For the same molecule, the GI50 in the experiment with NCI-H522 is 13 µM (inactive); with OVCAR-3, 12.8 µM (inactive); in the experiment on OVCAR-5 it was 13.7 µM (inactive); with RPMI-8226 it was 10.5 µM (inactive); with SF-539 it was 17.4 µM (inactive); in the experiment on U-251, 14.4 µM (inactive). Further, in the experiment with UACC-62, the GI50 is 2.69 µM (inactive).
As for `COc1cccc2c1C(=O)c1ccc3cc(CCl)cc(O)c3c1C2=O`, the GI50 is 0.733 µM (active) in the experiment with CAKI-1; 0.309 µM (active) in the experiment on CCRF-CEM; 0.762 µM (active) with DU-145; 1.09 µM (active) with EKVX; 0.254 µM in the experiment on HCT-15; 0.362 µM (active) in the experiment on Hs-578T. The GI50 is 0.0605 µM (active) in the experiment on KM12; 0.158 µM (active) in the experiment with LOX IMVI; 0.205 µM (active) in the experiment with MDA-MB-231; 0.231 µM (active) in the experiment with MDA-N; 0.238 µM (active) in the experiment with MOLT-4; 0.869 µM (active) in the experiment on NCI-H226. The GI50 with NCI-H522 is 0.552 µM (active); in the experiment on OVCAR-3, 0.243 µM (active); in the experiment with OVCAR-5 it was 0.157 µM (active); in the experiment with RPMI-8226 it was 0.182 µM (active); with SF-539 it was 0.272 µM (active); in the experiment on U-251, 0.366 µM (active). Besides, in the experiment on UACC-62, the GI50 is 0.202 µM (active).
As to `CCOC(=O)/C=C(/C(=O)OCC)n1ccc(=O)n(Cc2cnnn2COCCOC(C)=O)c1=O`, the GI50 in the experiment with CAKI-1 is 5.93 µM (inactive); in the experiment with CCRF-CEM, 0.713 µM (active); in the experiment on DU-145 it was 20.7 µM (inactive); in the experiment on EKVX it was 16.5 µM (inactive); with HCT-15, 8.77 µM; with Hs-578T, 21 µM (inactive). The GI50 is 28.6 µM (inactive) in the experiment with KM12; 17.1 µM (inactive) in the experiment on LOX IMVI; 18.6 µM (inactive) in the experiment on MDA-MB-231; 23.2 µM (inactive) in the experiment on MDA-N; 4.51 µM (inactive) with MOLT-4; 24.3 µM (inactive) in the experiment with NCI-H226. Also, the GI50 in the experiment on NCI-H522 is 1.95 µM (inactive); with OVCAR-3 it was 14.9 µM (inactive); with OVCAR-5 it was 18.2 µM (inactive); in the experiment on RPMI-8226 it was 10.9 µM (inactive); in the experiment with SF-539, 11 µM (inactive); with U-251, 17.9 µM (inactive). In addition, in the experiment on UACC-62, the GI50 is 17.3 µM (inactive).
Turning to `CC(=O)OCc1ccc2oc(=O)c(C(=O)Oc3ccccc3)cc2c1`, the GI50 in the experiment with CAKI-1 was 20 µM (inactive); in the experiment with CCRF-CEM, > 100 µM (inactive); in the experiment on DU-145 it was > 100 µM (inactive); in the experiment with EKVX, 37.8 µM (inactive); in the experiment with HCT-15 it was 19.5 µM; in the experiment with Hs-578T, > 100 µM (inactive). The GI50 with KM12 is > 100 µM (inactive); with LOX IMVI, > 100 µM (inactive); with MDA-MB-231, 27.8 µM (inactive); with MDA-N, > 100 µM (inactive); with MOLT-4 it was > 100 µM (inactive); in the experiment with NCI-H226, > 100 µM (inactive). Besides, the GI50 in the experiment with NCI-H522, in the experiment on OVCAR-3, in the experiment with OVCAR-5, in the experiment with RPMI-8226, with SF-539 and in the experiment on U-251 was > 100 µM (inactive) throughout. Moreover, the GI50 with UACC-62 was 17.7 µM (inactive).
In the case of `NC1CC(=O)c2csc(Br)c21` (centres undefined), the GI50 is 10.9 µM (inactive) in the experiment with CAKI-1; 4.15 µM (inactive) with CCRF-CEM; 20.7 µM (inactive) with DU-145; 15.1 µM (inactive) in the experiment with EKVX; 7.71 µM in the experiment with HCT-15; 17.4 µM (inactive) in the experiment with Hs-578T. The GI50 was 12.2 µM (inactive) in the experiment with KM12; 15.6 µM (inactive) with LOX IMVI; 23.9 µM (inactive) in the experiment with MDA-MB-231; 13.6 µM (inactive) in the experiment with MDA-N; 15.1 µM (inactive) in the experiment with MOLT-4; 22.9 µM (inactive) in the experiment with NCI-H226. For the same molecule, the GI50 in the experiment on NCI-H522 is 2.05 µM (inactive); in the experiment on OVCAR-3, 15.3 µM (inactive); with OVCAR-5, 14.4 µM (inactive); in the experiment on RPMI-8226 it was 4.82 µM (inactive); in the experiment with SF-539 it was 2.52 µM (inactive); in the experiment on U-251, 18.1 µM (inactive). In addition, the GI50 in the experiment with UACC-62 is 16.5 µM (inactive).
On to `CC1(C)CC[C@]2(C(=O)O)CC[C@]3(C)C(=CC[C@@H]4[C@@]5(C)C[C@H](O)[C@H](O)[C@@](C)(C(=O)O)[C@@H]5CC[C@]43C)[C@@H]2C1`, for which the GI50 in the experiment with CAKI-1 was > 100 µM (inactive); with CCRF-CEM, > 100 µM (inactive); with DU-145, > 100 µM (inactive); with EKVX it was > 100 µM (inactive); in the experiment with HCT-15, greater than 100 µM; with Hs-578T it was > 100 µM (inactive). The GI50 in the experiment on KM12 is > 79.1 µM (inactive); in the experiment with LOX IMVI, > 100 µM (inactive); in the experiment with MDA-MB-231, > 100 µM (inactive); in the experiment with MDA-N it was > 100 µM (inactive); in the experiment with MOLT-4, > 100 µM (inactive); with NCI-H226, > 90.8 µM (inactive). For the same molecule, the GI50 with NCI-H522 is > 100 µM (inactive); in the experiment on OVCAR-3, > 100 µM (inactive); with OVCAR-5 it was > 100 µM (inactive); in the experiment on RPMI-8226, > 86.9 µM (inactive); with SF-539, > 100 µM (inactive); with U-251 it was > 100 µM (inactive). The GI50 with UACC-62 is > 54.6 µM (inactive).
